# Assay results from US12516058B2, “Small-molecule compounds for controlling endosomal toll-like receptors and therapeutic agent for autoimmune diseases using same” (priority 2020, dated 2026).
# Entries after “also recorded” stand apart in the source; their conditions may differ.
# Biological target: T1, TLR3 (Mus musculus, UniProt Q99MB1)
# T1 construct: RAW 264.7 cells were pretreated with each candidate compound for 1 hour; endogenous in cells; host or cells: RAW 264.7
# T1 sequence (Q99MB1 26-905): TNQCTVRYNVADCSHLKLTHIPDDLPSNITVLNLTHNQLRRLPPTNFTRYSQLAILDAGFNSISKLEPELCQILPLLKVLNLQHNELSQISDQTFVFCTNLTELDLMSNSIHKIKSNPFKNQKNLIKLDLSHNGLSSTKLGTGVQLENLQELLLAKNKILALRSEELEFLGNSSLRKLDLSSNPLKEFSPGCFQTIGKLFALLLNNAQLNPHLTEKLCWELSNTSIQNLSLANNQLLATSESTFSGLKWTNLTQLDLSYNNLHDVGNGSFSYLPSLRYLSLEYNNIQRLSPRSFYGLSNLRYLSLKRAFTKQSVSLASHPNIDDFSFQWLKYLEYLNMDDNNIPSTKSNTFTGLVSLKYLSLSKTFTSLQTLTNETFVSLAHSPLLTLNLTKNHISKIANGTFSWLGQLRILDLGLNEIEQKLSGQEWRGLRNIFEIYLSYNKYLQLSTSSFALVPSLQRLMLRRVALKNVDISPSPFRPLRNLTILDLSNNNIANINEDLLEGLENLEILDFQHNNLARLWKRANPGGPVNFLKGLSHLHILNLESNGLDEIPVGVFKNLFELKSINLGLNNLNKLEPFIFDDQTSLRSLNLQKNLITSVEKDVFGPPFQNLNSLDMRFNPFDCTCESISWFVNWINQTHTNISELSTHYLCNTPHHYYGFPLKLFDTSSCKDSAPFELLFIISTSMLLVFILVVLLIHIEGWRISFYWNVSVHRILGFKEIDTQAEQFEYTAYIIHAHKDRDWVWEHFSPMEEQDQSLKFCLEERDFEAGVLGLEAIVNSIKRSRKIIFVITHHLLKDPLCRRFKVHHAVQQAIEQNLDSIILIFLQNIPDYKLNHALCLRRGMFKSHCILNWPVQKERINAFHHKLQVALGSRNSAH
# Assay: TNF-α secretion ELISA after TLR3 agonist poly I:C in RAW 264.7 cells
# Type: cell-based
# Details: SK01, SK16; RAW 264.7 cells, poly I:C 24 h
# Method: In order to determine the inhibitory activities of the test-ligand, RAW 264.7 cells were pretreated with each candidate compound for 1 hour, then treated with Pam3CSK4 (synthetic triacyl lipopeptide; TLR1/2, Invitrogen), FSL-1 (synthetic diacyl lipoprotein, TLR2/6, 100 ng/ml), lipopolysaccharide (LPS, TLR4, Sigma Aldrich), imiquimod (IMQ, TLR7, Invitrogen), and ODN2395 (type C CpG repeat motif DNA oligo(5′-[…]-3), TLR9, Bioneer) ligand for 4 hours, and treated with poly I:C (I:C repeat motif double-stranded RNA, TLR3, Invitrogen) and TL8-506 (TLR8, Invitrogen) showing delayed reactivity for 24 hours. After activation of TLR, the supernatant was diluted in an appropriate ratio so as to measure within the standard dose range, transferred to a pre-coated 96-well assay plate, and then treated with mouse TNF-alpha secretion level in accordance with the manufacturer's instructions using a mouse-TNF-alpha ELISA-kit (Invitrogen).
# In order to determine the inhibitory activities of SK41, SK50, SK58 and SK64 on various TLR signaling pathways, RAW 264.7 cells were cultured along with each compound and then stimulated with different TLR agonists. The TLR agonists used herein were Pam3CSK4 (TLR1/2), FSL-1 (TLR2/6), LPS (TLR4) and FLA-ST (TLR5) as cell surface TLRs, and poly I:C (TLR3) and TL8-506 (TLR8) as endosomal TLRs.
row,SMILES,inhibition of the function of endosomal TLR3
1,"Cc1c(C)n(CCN(C)C)c2nc3c(c(N)c12)CCCCC3 [SK01, 1-(2-(dimethylamino)ethyl)-2,3-dimethyl-1,5,6,7,8,9-hexahydrocyclohepta[b]pyrrolo[3,2-e]pyridin-4-amine]",specifically inhibit
2,"Cc1c(C)n(CCCN(C)C)c2nc3c(c(N)c12)CCCCC3 [SK16, 1-(3-(dimethylamino)propyl)-2,3-dimethyl-1,5,6,7,8,9-hexahydrocyclohepta[b]pyrrolo[3,2-e]pyridin-4-amine]",specifically inhibit

# Same assay, conditions: SK41, SK50, SK58, SK64; poly I:C
row,SMILES,inhibitory activity against endosomal TLR3 (TNF-α secretion)
1,"Cc1ccc2c(c1)c1c(N)c3c(nc1n2CCCN(C)C)CCCC3 [SK58, 6-(3-(dimethylamino)propyl)-9-methyl-2,3,4,6-tetrahydro-1H-indolo[2,3-b]quinolin-11-amine]",strong inhibitory activity; also recorded: specific inhibitory activities
2,"COc1ccc2c(c1)c1c(N)c3c(nc1n2CCCN(C)C)CCCC3 [SK50, 6-(3-(dimethylamino)propyl)-9-methoxy-2,3,4,6-tetrahydro-1H-indolo[2,3-b]quinolin-11-amine]",strong inhibitory activity; also recorded: specific inhibitory activities
3,"Cc1cc2c(N)c3c(nc2n1CCCN(C)C)CCCCCC3 [SK41, 1-(3-(dimethylamino)propyl)-2-methyl-5,6,7,8,9,10-hexahydro-1H-cycloocta[b]pyrrolo[3,2-e]pyridin-4-amine]",strong inhibitory activity; also recorded: specific inhibitory activities
4,"COC(=O)c1ccc2c(c1)c1c(N)c3c(nc1n2CCCN(C)C)CCCC3 [SK64, Methyl 11-amino-6-(3-(dimethylamino)propyl)-2,3,4,6-tetrahydro-1H-indolo[2,3-b]quinolin-9-carboxylate]",strong inhibitory activity; also recorded: specific inhibitory activities
